Laboratory results as given in ChEMBL document CHEMBL4819013, “The giardicidal activity of lobendazole, fabomotizole, tenatoprazole and ipriflavone: A ligand-based virtual screening and in vitro study” (Eur J Med Chem, 2021).

Legend:
Giardia intestinalis [1] = assay: Giardicidal activity against nitazoxanide-resistant Giardia intestinalis incubated for 48 hrs by hemocytometric counting method; assay type: functional, organism-based; settings: Giardia duodenalis
Giardia intestinalis [2] = assay: Giardicidal activity against albendazole-resistant Giardia intestinalis incubated for 48 hrs by hemocytometric counting method; assay type: functional, organism-based; settings: Giardia duodenalis
Giardia intestinalis [3] = assay: Giardicidal activity against metronidazole-resistant Giardia intestinalis incubated for 48 hrs by hemocytometric counting method; assay type: functional, organism-based; settings: Giardia duodenalis
Giardia intestinalis [4] = assay: Giardicidal activity against Giardia intestinalis WB ATCC 30957 incubated for 48 hrs by hemocytometric counting method; assay type: functional, organism-based; settings: Giardia duodenalis, WB ATCC 30957, 48 h
Giardia intestinalis [5] = assay: Giardicidal activity against Giardia intestinalis IMSS isolate incubated for 48 hrs by hemocytometric counting method; assay type: functional, organism-based; settings: Giardia duodenalis
Giardia intestinalis [6] = assay: Potency index, ratio of albendazole IC50 to test compound IC50 for Giardicidal activity against nitazoxanide resistant Giardia intestinalis incubated for 48 hrs by hemocytometric counting method; assay type: functional, Giardia duodenalis
Giardia intestinalis [7] = assay: Potency index, ratio of nitazoxanide IC50 to test compound IC50 for Giardicidal activity against nitazoxanide-resistant Giardia intestinalis incubated for 48 hrs by hemocytometric counting method; assay type: functional, Giardia duodenalis
Giardia intestinalis [8] = assay: Potency index, ratio of metronidazole IC50 to test compound IC50 for Giardicidal activity against metronidazole-resistant Giardia intestinalis incubated for 48 hrs by hemocytometric counting method; assay type: functional, Giardia duodenalis
Giardia intestinalis [9] = assay: Potency index, ratio of albendazole IC50 to test compound IC50 for Giardicidal activity against albendazole-resistant Giardia intestinalis incubated for 48 hrs by hemocytometric counting method; assay type: functional, Giardia duodenalis

SMILES | IC50 (Giardia intestinalis [1]) | IC50 (Giardia intestinalis [2]) | IC50 (Giardia intestinalis [3]) | IC50 (Giardia intestinalis [4]) | IC50 (Giardia intestinalis [5]) | Ratio IC50 (Giardia intestinalis [6]) | Ratio IC50 (Giardia intestinalis [7]) | Ratio IC50 (Giardia intestinalis [8]) | Ratio IC50 (Giardia intestinalis [9])
CC(C)Oc1ccc2c(=O)c(-c3ccccc3)coc2c1 [IPRIFLAVONE] | 14 nM | 45 nM | 510 nM | 34 nM | 25 nM |  |  |  | 
CC(=O)Oc1ccccc1C(=O)Nc1ncc([N+](=O)[O-])s1 [NITAZOXANIDE] | 1970 nM | 21 nM | 17 nM | 18 nM | 15 nM |  |  |  | 
CCOc1ccc2nc(SCCN3CCOCC3)[nH]c2c1 [FABOMOTIZOLE] | 65 nM | 50 nM | 50 nM | 31 nM | 29 nM |  |  |  | 
Cc1ncc([N+](=O)[O-])n1CCO [METRONIDAZOLE] |  | 1630 nM | 1850 nM |  |  |  |  |  | 
CCOC(=O)Nc1nc2ccccc2[nH]1 [LOBENDAZOLE] | 61 nM | 916 nM | 200 nM | 85 nM | 37 nM | 4.5 | 32 |  | 
CCCSc1ccc2[nH]c(NC(=O)OC)nc2c1 [ALBENDAZOLE] | 277 nM | 137 nM |  | 47 nM |  |  |  |  | 
COc1ccc2[nH]c([S+]([O-])Cc3ncc(C)c(OC)c3C)nc2n1 (stereo not given) [TENATOPRAZOLE] | 49 nM | 27 nM | 59 nM | 19 nM | 20 nM |  | 40 | 31 | 5
